Assay [1] has as its system NZBxW F1 mice (spontaneous lupus-like kidney disease). The experiment in a line: NZBxW F1 preclinical model of SLE, treatment initiated at 9 months of age (severe disease), CD4 antibody and MMF.
Procedure: (§1) Proteinuria was measured using a Clinitek® 50 Urine Chemistry Analyzer (Bayer Corporation, Elkhart, Ind., USA). A drop of freshly collected urine was placed on a reagent strip (Multistix® 10 SG, Bayer), and the strip was immediately inserted into the analyzer after removal of excess urine by blotting with a clean gauze sponge.
Numbers of activated CD4+ T cells found in spleen were determined by flow cytometry as follows. Whole spleens were harvested and crushed into single cell suspensions, which were then red blood cell lysed using EL buffer (erythrocyte lysis buffer, from Qiagen, Valencia, Calif., catalog number 79217), passed through a 70 micron cell strainer, and then resuspended for cell counts. A fixed volume of each cell suspension was mixed with a fluorescent bead (Polysciences, Inc., catalog number 18862) solution of known concentration. The mixture was then run on a FACScan™ flow cytometer from BD Biosciences (Franklin Lakes, N.J.). By collecting a fixed number of beads for each mixture, the total number of live cells could be calculated and subsequently used to determine total numbers of cell subpopulations for the spleen of each mouse after further FACS analysis.
Treatment of NZB×NZW mice was initiated at 9 months of age. Mice were screened for proteinuria and randomized into groups based on their proteinuria scores. […] Mice were monitored for changes in proteinuria (urinalysis was performed as described above in Example 1), disease progression, and survival. […] MMF was given IP at either 25 mg/kg daily or 50 mg/kg daily (alone or in combination with the CD4 antibody).
CD4^+ T cell and B2 B cell numbers were determined by flow cytometry basically as described above, using antibodies to identify the various cell populations and then using the percentage of each population represented (of total lymphocytes) multiplied by the total number of lymphocytes to determine the number of each population. B2 cells (the majority of B cells) were identified by positive staining for B220 (CD45) and CD38. Anti-B220/CD45 and anti-CD38 were from BD Pharmingen.
Comparisons were performed using Dunnett's method with the control antibody treated group as the reference control group (designated in bold), and only p values for groups that achieve statistical significance vs. the reference control are designated on the graph.
For assay [2] the test system is unchanged. As to the kind of experiment: NZBxW F1 preclinical model of SLE, treatment initiated at 8 months of age (moderate-severe disease). It is filed as in vivo, mouse. The following applies: over time after treatment; CTX 50 mg/kg IP every 10 days; FIG. 7A.
Source text: The control antibody was an irrelevant mouse IgG1 antibody (a mouse antibody was used for the control since an irrelevant rat antibody would elicit an immune response against itself, influencing the course of disease; the rat anti-CD4 antibody prevents such a response to itself).
At 8 months of age, NZB×NZW mice were screened for proteinuria and randomized into 5 groups based on their proteinuria scores. At this age, disease is considered to be moderate-severe. At the onset of the experiment, each group of 19 mice was composed of the following distribution of protein concentrations in the urine: 32% at >300 mg/dl; 24% at 100-300 mg/dl; and 44% at 30-100 mg/dl. […] Mice were monitored for changes in urine protein concentration (e.g., proteinuria), Blood Urea Nitrogen (BUN), and survival.
as §1
Blood urea nitrogen was measured using a Cobas Integra® 400 chemistry analyzer (Roche Diagnostics, Basel, Switzerland) and urea detection reagent (also supplied by Roche Diagnostics) according to the manufacturer's instructions. […]
For assay [3], the system named is SJL/J mice with PLP-139-151 peptide induced EAE. As to the kind of experiment: Relapsing and remitting EAE induced by PLP peptide in SJL/J mice (model of MS). It is filed as in vivo, mouse. The following applies: treatment initiated at day 14 (peak of disease), CD4 antibody = murinized YTS177; FIG. 12. The text has this: Experimental autoimmune encephalomyelitis (EAE) is an inflammatory condition of the central nervous system (CNS) with similarities to MS; in both diseases, demyelination results in impaired nerve conduction and paralysis. Relapsing and remitting EAE induced by injection of proteolipid protein (PLP) peptide in SJL/J mice provides a useful preclinical efficacy model of MS (see, e.g., Miller and Karpus (1996) “Experimental Autoimmune Encephalomyelitis in the Mouse” in Current Protocols in Immunology, Coligan et al. (eds.), John Wiley & Sons, Inc. and Sobel et al. (1990) “Acute experimental allergic encephalomyelitis in SJL/J mice induced by a synthetic peptide of myelin proteolipid protein” J Neuropathol Exp Neurol. 49(5):468-79).
FIG. 10 schematically illustrates progression of the disease over time after injection of the PLP peptide in this model. Injection at day 0 is followed by disease onset (days 0-15), remission (days 15-25), and relapse (day 25-termination of the study at days 60-70). […]
Numbers of effector/memory cells in the blood were determined by flow cytometry as follows. […]
To 1×10^6 cells, a saturating amount of fluorophore-conjugated antibodies were added and incubated on ice for 30 minutes, followed by washing with cold buffer. […] Samples were analyzed by flow cytometry on a FACSCalibur from BD Biosciences. […]

As to `COc1c(C)c2c(c(O)c1C/C=C(\C)CCC(=O)OCCN1CCOCC1)C(=O)OC2` [MMF, 2-morpholinoethyl (E)-6-(1,3-dihydro-4-hydroxy-6-methoxy-7-methyl-3-oxo-5-isobenzofuranyl)-4-methyl-4-hexenoate], in assay [1] (25 mg/kg MMF, may not be statistically significant, FIG. 20B), the “blood B2 B cell numbers” value is listed as “increase”. Further, the “proteinuria, multiple comparison analysis (Dunnett's method) vs control antibody” value in assay [1] (month 2 of treatment, MMF 50 or 25 mg/kg daily, FIG. 19) was “did not show statistically significant reduction in proteinuria”. The “capacity to reverse severe proteinuria (mice reversed from 300 mg/dl proteinuria)” value in assay [1] (one month of treatment, MMF 25 or 50 mg/kg daily IP, YTS177 5 mg/kg 3x/week, FIG. 17B) was “not sufficient to reverse severe proteinuria significantly”. Moreover, the “mice exhibiting >300 mg/dl proteinuria (reversal of nephritis symptoms in very late stage disease)” value in assay [1] (over time after treatment, FIG. 17A) is given as “not observed”.

Consider `O=P1(N(CCCl)CCCl)NCCCO1` (stereo not drawn) [cyclophosphamide], for which, in assay [2], the “mice exhibiting >300 mg/dl proteinuria (reversal of nephritis symptoms in very late stage disease)” value is given as “not observed”.

Consider glatiramer acetate, for which the clinical score result in assay [3] was “ineffective”.

The values above are taken from patent US20080279848A1, “Methods of treating lupus using CD4 antibodies” (GENENTECH, INC., priority 2006, published 2008).
